Measured values taken from article PMC3914206.

How the values were obtained:
[1] = molecular target: T1, panel of 442 kinases (Homo sapiens, UniProt O43318); assay type: binding; settings: kinase TAK1; compound concentration 10 µM
T1 construct: purchased KINOMEscan
T1 sequence (O43318 1-606): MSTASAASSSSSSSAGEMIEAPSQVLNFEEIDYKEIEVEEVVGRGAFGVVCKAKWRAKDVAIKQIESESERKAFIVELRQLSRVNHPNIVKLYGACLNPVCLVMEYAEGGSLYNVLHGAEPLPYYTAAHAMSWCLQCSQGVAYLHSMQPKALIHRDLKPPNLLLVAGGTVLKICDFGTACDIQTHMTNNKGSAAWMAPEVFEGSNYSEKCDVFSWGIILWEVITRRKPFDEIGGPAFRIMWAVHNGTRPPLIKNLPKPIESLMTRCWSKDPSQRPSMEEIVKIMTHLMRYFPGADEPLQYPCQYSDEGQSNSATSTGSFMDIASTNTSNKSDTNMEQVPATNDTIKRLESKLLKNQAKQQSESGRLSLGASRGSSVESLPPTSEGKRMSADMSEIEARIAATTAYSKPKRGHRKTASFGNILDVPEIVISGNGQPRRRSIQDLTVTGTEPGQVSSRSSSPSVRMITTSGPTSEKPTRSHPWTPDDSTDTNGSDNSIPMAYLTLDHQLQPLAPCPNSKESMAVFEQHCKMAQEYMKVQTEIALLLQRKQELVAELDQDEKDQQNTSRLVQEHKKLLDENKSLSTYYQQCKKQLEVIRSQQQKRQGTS
Description: (§1) We assessed the selectivity of members of this scaffold using the KINOMEscan methodology across a near comprehensive panel of 442 kinases [[18,27]].

[2] = molecular target: T2, panel of 442 kinases (Homo sapiens, UniProt Q8NFD2); assay type: binding; settings: Compound Concentration 10 µM
T2 construct: purchased KINOMEscan
T2 sequence (Q8NFD2 1-765): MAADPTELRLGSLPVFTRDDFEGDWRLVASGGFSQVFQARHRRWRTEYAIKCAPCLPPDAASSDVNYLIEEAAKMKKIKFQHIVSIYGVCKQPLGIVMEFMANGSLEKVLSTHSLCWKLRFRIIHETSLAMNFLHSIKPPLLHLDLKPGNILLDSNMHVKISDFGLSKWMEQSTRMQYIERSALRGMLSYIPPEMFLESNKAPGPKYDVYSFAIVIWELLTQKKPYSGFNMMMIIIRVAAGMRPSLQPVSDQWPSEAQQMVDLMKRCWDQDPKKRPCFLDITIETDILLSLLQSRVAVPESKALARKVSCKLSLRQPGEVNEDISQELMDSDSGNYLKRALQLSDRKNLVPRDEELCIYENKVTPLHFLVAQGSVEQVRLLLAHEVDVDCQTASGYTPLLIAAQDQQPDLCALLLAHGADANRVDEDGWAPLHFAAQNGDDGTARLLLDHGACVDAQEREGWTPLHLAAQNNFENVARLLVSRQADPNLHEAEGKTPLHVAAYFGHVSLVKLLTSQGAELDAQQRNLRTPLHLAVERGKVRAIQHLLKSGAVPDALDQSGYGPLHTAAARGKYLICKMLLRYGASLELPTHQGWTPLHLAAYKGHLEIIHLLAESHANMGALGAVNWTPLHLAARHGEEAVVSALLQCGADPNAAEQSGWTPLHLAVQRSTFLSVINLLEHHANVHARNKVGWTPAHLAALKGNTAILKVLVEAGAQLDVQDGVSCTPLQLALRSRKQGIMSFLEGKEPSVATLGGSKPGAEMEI
Description: as §1

With `COc1cc(C(=O)N2CCC(N3CCN(C)CC3)CC2)ccc1Nc1ncc2c(n1)N(C1CCCC1)c1ccccc1C(=O)N2C` [Compound 25, 11-cyclopentyl-2-((2-methoxy-4-(4-(4-methylpiperazin-1-yl)piperidine-1-carbonyl)phenyl)amino)-5-methyl-5H-benzo[e]pyrimido[5,4-b][1,4]diazepin-6(11H)-one] the “% Ctrl, TAK1” value [1] was 100 % Ctrl and the “KINOMEscan: ANKK1” value [2] was 85.
`CCOc1cc(C(=O)N2CCC(N3CCN(C)CC3)CC2)ccc1Nc1ncc2c(n1)N(C1CCCC1)c1ccccc1C(=O)N2C` [Compound 26] was tested, and the “% Ctrl, TAK1” value [1] was 100 % Ctrl and the “KINOMEscan: ANKK1” value [2] was 84.
For `COc1cc(C(=O)N2CCC(N3CCN(C)CC3)CC2)ccc1Nc1ncc2c(n1)N1CCc3cccc(c31)C(=O)N2C` [Compound 24], the “% Ctrl, TAK1” value [1] was 100 % Ctrl.
With `COc1cc(C(=O)N2CCC(N3CCN(C)CC3)CC2)ccc1Nc1ncc2c(n1)N(C)c1ccccc1C(=O)N2C` [15 (LRRK2-IN-1)] the “% Ctrl, TAK1” value [1] was 98 % Ctrl and the “KINOMEscan: ANKK1” value [2] was 100.
